These results are taken from patent publication US10894782B2, “Modulators of P97 AAA ATPase activity” (University of Pittsburgh—Of the Commonwealth System of …, priority 2016, dated 2021).

The assay has as its target P97 (Homo sapiens (Human), UniProt P55072). Put plainly: P97 Biomolgreen ATPase assay, 200 μM ATP. The format is biochemical.
Setting [1] is: read-out: P97 Biomolgreen, IC50.

Like-named read-outs stand apart in the source and are kept apart here.

Sequence of P97 (P55072 whole entry): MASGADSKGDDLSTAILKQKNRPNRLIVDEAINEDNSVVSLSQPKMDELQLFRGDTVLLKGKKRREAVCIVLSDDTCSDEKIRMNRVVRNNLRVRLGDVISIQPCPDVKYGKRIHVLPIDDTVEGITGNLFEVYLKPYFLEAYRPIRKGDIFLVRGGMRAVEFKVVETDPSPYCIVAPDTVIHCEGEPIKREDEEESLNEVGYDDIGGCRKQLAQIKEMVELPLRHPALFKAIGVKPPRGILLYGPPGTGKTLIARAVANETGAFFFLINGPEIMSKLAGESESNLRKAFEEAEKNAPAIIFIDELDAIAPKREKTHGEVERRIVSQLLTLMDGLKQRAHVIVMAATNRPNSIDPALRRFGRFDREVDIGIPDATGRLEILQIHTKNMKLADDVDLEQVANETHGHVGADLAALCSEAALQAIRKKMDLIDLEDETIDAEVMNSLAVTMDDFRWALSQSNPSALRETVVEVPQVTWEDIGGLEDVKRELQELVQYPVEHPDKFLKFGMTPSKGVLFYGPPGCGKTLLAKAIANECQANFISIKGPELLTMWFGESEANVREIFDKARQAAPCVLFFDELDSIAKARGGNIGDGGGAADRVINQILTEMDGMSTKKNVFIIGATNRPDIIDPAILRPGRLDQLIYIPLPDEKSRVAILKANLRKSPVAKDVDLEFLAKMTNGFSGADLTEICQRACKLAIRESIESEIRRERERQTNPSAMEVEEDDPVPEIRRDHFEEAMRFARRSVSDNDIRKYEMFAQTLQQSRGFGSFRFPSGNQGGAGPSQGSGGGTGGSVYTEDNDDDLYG

In the case of `[2H]C1([2H])C([2H])([2H])C([2H])([2H])C([2H])(Sc2nnc(COc3ccc(C#CCOC(=O)NCc4cc(C)on4)c(C)c3)n2-c2cccnc2)C1([2H])[2H]` [Compound 35], the IC50 – broadly, the concentration that inhibits the measured activity by half – (P97 Biomolgreen, IC50 (μM)) is 0.064 µM. With `C#Cc1ccc(OCc2nnc(SC3CC3)n2-c2cccnc2)cc1C` [Compound 48], under setting [1], the IC50 amounted to 0.67 µM. As to `Cc1cc(OCc2nnc(SC3C=CCCC3)n2-c2cccnc2)ccc1C#CCN1C(=O)c2ccccc2C1=O` (centres unmarked) [Compound 47], under setting [1], the IC50 turned out to be 0.29 µM. `[2H]C1([2H])C([2H])([2H])C([2H])([2H])C([2H])(Sc2nnc(COc3ccc(C#CCOC(=O)N4CCC4)c(C)c3)n2-c2cccnc2)C1([2H])[2H]` [Compound 37] had an IC50 (P97 Biomolgreen, IC50 (μM)) of 0.07 µM. Take `[2H]C1([2H])C([2H])([2H])C([2H])([2H])C([2H])(Sc2nnc(COc3ccc(C#CCOC(=O)NC4CCN(C)CC4)c(F)c3)n2-c2cccnc2)C1([2H])[2H]` [Compound 126]: where the note is “P97 Biomolgreen, IC50 (μM)”, it took 0.016 µM to reach half-maximal inhibition (IC50). On to `OCC#Cc1ccc(OCc2nnc(SC3C=CCCC3)n2-c2cccnc2)c(F)c1F` (centres unmarked) [Compound 113], for which, under setting [1], the IC50 turned out to be 0.04 µM. Turning to `C=C(C)C(=O)NCC#Cc1ccc(OCc2nnc(SC3C=CCCC3)n2-c2cccnc2)cc1C` (centres unmarked) [Compound 86], the IC50 under setting [1] is 0.06 µM. `Cc1cc(OCc2nnc(SC3C=CCCC3)n2-c2cccnc2)ccc1C#CCNS(=O)(=O)c1ccc(F)cc1` (centres unmarked) [Compound 15]: under setting [1], the IC50 turned out to be 0.074 µM. Consider `Cc1cc(OCc2nnc(SC3CCCC3)n2-c2cccnc2)ccc1C#CC#N` [Compound 5], for which, under setting [1], the IC50 was determined as 0.021 µM. On the same count and under the same terms, for `Cc1cc(OCc2nnc(SC3CCCC=C3F)n2-c2cccnc2)ccc1C#CCO` (centres unmarked) [Compound 74] the value was 0.51 µM.

In the case of `Cc1cc(OCc2nnc(SC3CCCC3)n2-c2cccnc2)ccc1C#CCCc1ccccc1` [Compound 9], the IC50 under setting [1] was determined as 0.1 µM. Turning to `[2H]C1([2H])C([2H])([2H])C([2H])([2H])C([2H])(Sc2nnc(COc3ccc(C#CCOC)c(C)c3)n2-c2cccnc2)C1([2H])[2H]` [Compound 36], the midpoint of inhibition (P97 Biomolgreen, IC50 (μM)), the IC50, lay at 0.069 µM.

With `CN1CCN(CCNC(=O)OCC#Cc2ccc(OCc3nnc(SC4C=CCCC4)n3-c3cccnc3)cc2F)CC1` (centres unmarked) [Compound 107], under setting [1], the IC50 came out at 0.013 µM.

On to `Cc1cc(OCc2nnc(SC3C=CCCC3)n2-c2cccnc2)ccc1C#CC(OC(=O)NCCN1CCN(C(C)C)CC1)C(F)(F)F` (centres unmarked) [Compound 62], for which, under setting [1], the IC50 turned out to be 0.11 µM.

Regarding `Cc1cc(OCc2nnc(SC3C=CCCC3)n2-c2cccnc2)ccc1C#CC1(O)COC1` (centres unmarked) [Compound 34], the IC50 under setting [1] turned out to be 0.098 µM. Consider `Cc1cc(OCc2nnc(SC3CCCC3)n2-c2cccnc2)ccc1C#CCN1C(=O)c2ccccc2C1=O` [Compound 50], for which the IC50 under setting [1] came to 0.28 µM. With `Cc1cc(OCc2nnc(SC3CC3)n2-c2cccnc2)ccc1C#CCNC(=O)OC(C)(C)C` [Compound 54], the IC50 under setting [1] was 2 µM. On the same count and under the same terms, for `Cc1cc(OCc2nnc(SC3C=CCCC3)n2-c2cccnc2)ccc1C#CCNS(C)(=O)=O` (centres unmarked) [Compound 14] the value was 0.035 µM; for `CC(=O)N1CCN(C(=O)OCC#Cc2ccc(OCc3nnc(SC4C=CCCC4)n3-c3cccnc3)cc2C)CC1` (centres unmarked) [Compound 102], 0.03 µM; for `Cc1cc(OCc2nnc(SC3C=CCCC3)n2-c2cccnc2)ccc1C#CC1(NC(=O)OC(C)(C)C)CCCCC1` (centres unmarked) [Compound 53], 1.1 µM.
